Data taken from US20040235869A1, “Nucleoside analog inhibitors of reverse transcriptase” (priority 2003, published 2004).

Legend:
[1] = taken with ddI (Videx or Videx EC); cited from earlier work
[2] = target: HIV reverse transcriptase (Human immunodeficiency virus type 1 group M subtype B, UniProt P04585); assay: HIV reverse transcriptase inhibition primer extension experiment (incorporation of nucleoside triphosphates into DNA by RT, chain termination); format: biochemical; conditions: triphosphate form; template SEQ ID NO:1, primer SEQ ID NO:2; terminated product 38 instead of 53 base pairs; FIG. 2
Text: For primer extension experiments (Example 3), some of the novel nucleoside analog inhibitors were converted to triphosphate form in vitro, such as occurs in mammalian cells by endogenous enzymes.
Once incorporated into the growing DNA strand, transcription is terminated because the nucleosides lack the necessary 3′ hydroxyl group.
The method is analogous to the Sanger sequencing. Specifically, in the presence of a template and four natural nucleotide triphosphates (dATP, dGTP, dCTP and dTTP), a radiolabeled primer is extended to full length by RT, as indicated by a single band on the sequencing gel. Addition of ddTTP, which competes with dTTP, results in the termination of primer extension at the positions of nucleotides opposite adenosine in the template strand. AZTTP, which is also a chain terminator, gives a similar result as ddTTP. If a compounds, e.g., (V) to (VII), in triphosphate form has a branched 3′-group that cannot be accommodated in the 3′-pocket of RT, the compound is not a substrate for RT. Therefore, it will be unable to compete with dTTP, resulting in a completed, extended product. […]
Template cagatagtcttcacgaggcaggtcgtcttgtcctggtActcgtttgcgttccg (SEQ ID NO:1) and primer […] […] With this template and primer, there is only one adenosine in the template to be read into the growing chain as a thymidine (capital and boldface in SEQ ID NO:1). […]

[3] = nitrogen at the 3'-branched group; Hossain et al., 1993; Huang et al., 1995; cited from earlier work
[4] = 300 mg x 2/day; cited from earlier work

## CC(C)OC(=O)OCOP(=O)(CO[C@H](C)Cn1cnc2c(N)ncnc21)OCOC(=O)OC(C)C [Viread, tenofovir DF]
[1]
  increase of ddI levels in the blood: ≤ 60%, causing increased

## Cc1cn([C@H]2CC[C@@H](COP(=O)(O)OP(=O)(O)OP(=O)(O)O)O2)c(=O)[nH]c1=O [ddTTP]
[2]
  chain termination of the primer extension opposite the only A in the template (substrate for RT): chain terminators

## Cc1cn([C@H]2CC([N+](=O)[O-])[C@@H](CO)O2)c(=O)[nH]c1=O (some centres unmarked) [molecule (I)]
[3]
  effectiveness in vivo: ineffective in vivo

## Cc1cn([C@H]2C[C@H](N=[N+]=[N-])[C@@H](CO[P@](=O)(O)O[P@](=O)(O)OP(=O)(O)O)O2)c(=O)[nH]c1=O [AZTTP, AZT-triphosphate]
[2]
  chain termination of the primer extension opposite the only A in the template (substrate for RT): chain terminators

## Nc1nc(NC2CC2)c2ncn([C@H]3C=C[C@@H](CO)C3)c2n1 [Ziagen, abacavir]
[4]
  Serious allergic reactions, share of patients: Serious allergic reactions in about 3-5% of patients.
